{"source": "patent US10758534B2", "about": "(Vertex Pharmaceuticals Incorporated, priority 2014, dated 2020)", "molecular_target": "T1, F508del (Homo sapiens, UniProt P13569, DEL508-508)", "T1 construct": "expressed in transfected cells", "T1 sequence (P13569 with tags, fused parts or gaps DEL508-508)": "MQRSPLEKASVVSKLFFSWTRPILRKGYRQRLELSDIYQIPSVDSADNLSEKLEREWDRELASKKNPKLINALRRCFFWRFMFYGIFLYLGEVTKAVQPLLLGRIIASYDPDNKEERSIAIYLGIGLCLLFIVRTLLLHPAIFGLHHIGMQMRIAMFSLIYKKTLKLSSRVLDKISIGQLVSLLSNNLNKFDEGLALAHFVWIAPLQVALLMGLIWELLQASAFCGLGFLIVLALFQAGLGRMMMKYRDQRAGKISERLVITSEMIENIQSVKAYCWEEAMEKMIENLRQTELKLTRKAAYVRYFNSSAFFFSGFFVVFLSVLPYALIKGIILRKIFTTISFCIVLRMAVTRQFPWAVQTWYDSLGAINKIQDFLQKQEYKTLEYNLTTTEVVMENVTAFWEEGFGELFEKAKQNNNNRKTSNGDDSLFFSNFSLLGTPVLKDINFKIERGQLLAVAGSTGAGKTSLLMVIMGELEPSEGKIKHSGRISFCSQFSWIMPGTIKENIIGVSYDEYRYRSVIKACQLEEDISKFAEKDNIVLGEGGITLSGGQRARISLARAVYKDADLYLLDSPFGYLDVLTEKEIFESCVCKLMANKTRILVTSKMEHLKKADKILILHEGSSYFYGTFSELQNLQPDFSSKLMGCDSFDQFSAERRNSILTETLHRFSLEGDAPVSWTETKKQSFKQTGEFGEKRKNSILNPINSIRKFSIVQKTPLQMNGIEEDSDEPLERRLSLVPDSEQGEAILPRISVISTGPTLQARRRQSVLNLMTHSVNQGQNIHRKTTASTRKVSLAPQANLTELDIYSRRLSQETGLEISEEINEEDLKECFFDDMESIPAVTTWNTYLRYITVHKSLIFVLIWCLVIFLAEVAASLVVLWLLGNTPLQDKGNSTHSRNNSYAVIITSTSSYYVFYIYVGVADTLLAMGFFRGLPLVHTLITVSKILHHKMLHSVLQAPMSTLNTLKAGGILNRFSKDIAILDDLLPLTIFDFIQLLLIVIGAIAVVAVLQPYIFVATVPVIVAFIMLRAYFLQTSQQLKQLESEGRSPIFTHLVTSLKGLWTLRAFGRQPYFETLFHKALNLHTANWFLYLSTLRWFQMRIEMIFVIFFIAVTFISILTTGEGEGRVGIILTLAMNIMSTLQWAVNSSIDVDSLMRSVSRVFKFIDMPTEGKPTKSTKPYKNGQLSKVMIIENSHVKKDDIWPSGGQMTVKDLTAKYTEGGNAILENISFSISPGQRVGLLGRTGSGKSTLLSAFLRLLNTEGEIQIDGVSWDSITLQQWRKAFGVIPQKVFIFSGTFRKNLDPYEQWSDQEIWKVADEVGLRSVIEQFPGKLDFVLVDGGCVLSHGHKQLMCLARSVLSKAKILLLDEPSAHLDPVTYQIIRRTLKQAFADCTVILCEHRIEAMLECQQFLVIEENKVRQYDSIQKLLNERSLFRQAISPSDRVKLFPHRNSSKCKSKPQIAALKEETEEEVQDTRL", "assay": "Protocol 1: membrane potential optical assay (FLIPR III, voltage sensing dye), identification of potentiator compounds", "type": "cell-based", "settings": "Table 3, compounds of Table 1", "summary_of_the_method": "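NIH 3T3 fibroblasts stably expressing F508del were cultured at 27° C for 24 hrs for temperature correction, then treated with compounds or DMSO and loaded with a voltage-sensing redistribution dye. Forskolin added with a Cl⁻ gradient activated the channel; membrane-potential fluorescence on FLIPR III reported increased gating.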", "data": [{"smiles": "CC(=O)c1cccc(Nc2cccc(S(=O)(=O)NC(=O)c3cccnc3N3CC(C)CC3(C)C)n2)c1", "note": "(centres unmarked) [Compound 1949, N—[[6-(3-acetylanilino)-2-pyridyl]sulfonyl]-2-(2,2,4-trimethylpyrrolidin-1-yl)pyridine-3-carboxamide]", "values": [{"measurement": "EC30", "result": "+++ (“+++” means <3 uM)"}]}, {"smiles": "CC1CN(c2ncc(-c3cccc(C(F)(F)F)c3)cc2C(=O)NS(=O)(=O)c2cccc(N)n2)C(C)(C)C1", "note": "(centres unmarked) [Compound 1950, N-[(6-amino-2-pyridyl)sulfonyl]-5-[3-(trifluoromethyl)phenyl]-2-(2,2,4-trimethylpyrrolidin-1-yl)pyridine-3-carboxamide]", "values": [{"measurement": "EC30", "result": "+++ (“+++” means <3 uM)"}]}, {"smiles": "Cc1ccc(C)c(-c2ccc(C(=O)NS(=O)(=O)c3cccnc3N)c(N3C[C@@H](C)CC3(C)C)n2)c1", "note": "[Compound 1951, N-[(2-amino-3-pyridyl)sulfonyl]-6-(2,5-dimethylphenyl)-2-[(4S)-2,2,4-trimethylpyrrolidin-1-yl]pyridine-3-carboxamide]", "values": [{"measurement": "EC30", "result": "+++ (“+++” means <3 uM)"}]}, {"smiles": "C[C@@H]1CN(c2nc(-n3ccc(OCC(C)(C)C)n3)ccc2C(=O)NS(=O)(=O)c2cccc(N)n2)C(C)(C)C1", "note": "[Compound 1952, N-[(6-amino-2-pyridyl)sulfonyl]-6-[3-(2,2-dimethylpropoxy)pyrazol-1-yl]-2-[(4S)-2,2,4-trimethylpyrrolidin-1-yl]pyridine-3-carboxamide]", "values": [{"measurement": "EC30", "result": "+++ (“+++” means <3 uM)"}]}, {"smiles": "CC1CN(c2ncccc2C(=O)NS(=O)(=O)c2cccc(OCc3cccc(C(F)(F)F)c3)n2)C(C)(C)C1", "note": "(centres unmarked) [Compound 1953, N—[[6-[[3-(trifluoromethyl)phenyl]methoxy]-2-pyridyl]sulfonyl]-2-(2,2,4-trimethylpyrrolidin-1-yl)pyridine-3-carboxamide]", "values": [{"measurement": "EC30", "result": "+++ (“+++” means <3 uM)"}]}, {"smiles": "C[C@@H]1CN(c2nc(-c3cc(F)ccc3F)ccc2C(=O)NS(=O)(=O)c2ccc[nH]c2=O)C(C)(C)C1", "note": "[Compound 1954, 6-(2,5-difluorophenyl)-N-[(2-oxo-1H-pyridin-3-yl)sulfonyl]-2-[(4S)-2,2,4-trimethylpyrrolidin-1-yl]pyridine-3-carboxamide]", "values": [{"measurement": "EC30", "result": "+++ (“+++” means <3 uM)"}]}, {"smiles": "CC1CN(c2ncccc2C(=O)NS(=O)(=O)c2cccc(Oc3cccc4c3CCCC4)n2)C(C)(C)C1", "note": "(centres unmarked) [Compound 1955, N-[(6-tetralin-5-yloxy-2-pyridyl)sulfonyl]-2-(2,2,4-trimethylpyrrolidin-1-yl)pyridine-3-carboxamide]", "values": [{"measurement": "EC30", "result": "+++ (“+++” means <3 uM)"}]}, {"smiles": "CC(C)COc1cc(F)cc(-c2ccc(C(=O)NS(=O)(=O)N3CCC(F)(F)C3)c(N3C[C@@H](C)CC3(C)C)n2)c1", "note": "[Compound 1956, N-(3,3-difluoropyrrolidin-1-yl)sulfonyl-6-(3-fluoro-5-isobutoxy-phenyl)-2-[(4S)-2,2,4-trimethylpyrrolidin-1-yl]pyridine-3-carboxamide]", "values": [{"measurement": "EC30", "result": "+++ (“+++” means <3 uM)"}]}, {"smiles": "CC1CN(c2ncccc2C(=O)NS(=O)(=O)c2cccc(Oc3cncc(Cl)c3)n2)C(C)(C)C1", "note": "(centres unmarked) [Compound 1957, N—[[6-[(5-chloro-3-pyridyl)oxy]-2-pyridyl]sulfonyl]-2-(2,2,4-trimethylpyrrolidin-1-yl)pyridine-3-carboxamide]", "values": [{"measurement": "EC30", "result": "++ (“++” means between 3 uM and 10 uM)"}]}, {"smiles": "C[C@@H]1CN(c2nc(-c3ccccc3)ccc2C(=O)NS(=O)(=O)c2cccnc2N)C(C)(C)C1", "note": "[Compound 1958, N-[(2-amino-3-pyridyl)sulfonyl]-6-phenyl-2-[(4S)-2,2,4-trimethylpyrrolidin-1-yl]pyridine-3-carboxamide]", "values": [{"measurement": "EC30", "result": "+++ (“+++” means <3 uM)"}]}, {"smiles": "COc1ccccc1Nc1cccc(S(=O)(=O)NC(=O)c2cccnc2N2CC(C)CC2(C)C)n1", "note": "(centres unmarked) [Compound 1959, N—[[6-(2-methoxyanilino)-2-pyridyl]sulfonyl]-2-(2,2,4-trimethylpyrrolidin-1-yl)pyridine-3-carboxamide]", "values": [{"measurement": "EC30", "result": "+++ (“+++” means <3 uM)"}]}, {"smiles": "C[C@@H]1CN(c2nc(-c3ccccc3C(F)(F)F)ccc2C(=O)NS(=O)(=O)c2ccc[nH]c2=O)C(C)(C)C1", "note": "[Compound 1960, N-[(2-oxo-1H-pyridin-3-yl)sulfonyl]-6-[2-(trifluoromethyl)phenyl]-2-[(4S)-2,2,4-trimethylpyrrolidin-1-yl]pyridine-3-carboxamide]", "values": [{"measurement": "EC30", "result": "+++ (“+++” means <3 uM)"}]}, {"smiles": "CC(C)COc1cc(F)cc(-c2ccc(C(=O)NS(=O)(=O)c3cccc(N)n3)c(C3=C[C@H](C)CC3(C)C)n2)c1", "note": "[Compound 1961]", "values": [{"measurement": "EC30", "result": "+++ (“+++” means <3 uM)"}]}, {"smiles": "COc1ccccc1-c1ccc(C(=O)NS(=O)(=O)c2cccnc2N)c(N2C[C@@H](C)CC2(C)C)n1", "note": "[Compound 1962, N-[(2-amino-3-pyridyl)sulfonyl]-6-(2-methoxyphenyl)-2-[(4S)-2,2,4-trimethylpyrrolidin-1-yl]pyridine-3-carboxamide]", "values": [{"measurement": "EC30", "result": "+++ (“+++” means <3 uM)"}]}, {"smiles": "Cc1cc(Cl)cc(-c2cnc(N3CC(C)CC3(C)C)c(C(=O)NS(=O)(=O)c3cccc(N)n3)c2)c1", "note": "(centres unmarked) [Compound 1963, N-[(6-amino-2-pyridyl)sulfonyl]-5-(3-chloro-5-methyl-phenyl)-2-(2,2,4-trimethylpyrrolidin-1-yl)pyridine-3-carboxamide]", "values": [{"measurement": "EC30", "result": "+++ (“+++” means <3 uM)"}]}, {"smiles": "CCOc1ccc(C)cc1-c1ccc(C(=O)NS(=O)(=O)c2cccnc2N)c(N2C[C@@H](C)CC2(C)C)n1", "note": "[Compound 1964, N-[(2-amino-3-pyridyl)sulfonyl]-6-(2-ethoxy-5-methyl-phenyl)-2-[(4S)-2,2,4-trimethylpyrrolidin-1-yl]pyridine-3-carboxamide]", "values": [{"measurement": "EC30", "result": "+++ (“+++” means <3 uM)"}]}, {"smiles": "COc1ccccc1COc1cccc(S(=O)(=O)NC(=O)c2cccnc2N2CC(C)CC2(C)C)n1", "note": "(centres unmarked) [Compound 1965, N-[[6-[(2-methoxyphenyl)methoxy]-2-pyridyl]sulfonyl]-2-(2,2,4-trimethylpyrrolidin-1-yl)pyridine-3-carboxamide]", "values": [{"measurement": "EC30", "result": "+++ (“+++” means <3 uM)"}]}, {"smiles": "CC(Oc1nc(N2C[C@@H](C)CC2(C)C)c(C(=O)NS(=O)(=O)c2cccc(N)n2)cc1F)C1CCCC1", "note": "(stereo partly drawn) [Compound 1966, N-[(6-amino-2-pyridyl)sulfonyl]-6-(1-cyclopentylethoxy)-5-fluoro-2-[(4S)-2,2,4-trimethylpyrrolidin-1-yl]pyridine-3-carboxamide]", "values": [{"measurement": "EC30", "result": "+++ (“+++” means <3 uM)"}]}, {"smiles": "Cc1ccc(-c2ccc(C(=O)NS(=O)(=O)N3CC[C@H](N)C3)c(N3C[C@@H](C)CC3(C)C)n2)c(F)c1", "note": "[Compound 1967, N-[(3S)-3-aminopyrrolidin-1-yl]sulfonyl-6-(2-fluoro-4-methyl-phenyl)-2-[(4S)-2,2,4-trimethylpyrrolidin-1-yl]pyridine-3-carboxamide]", "values": [{"measurement": "EC30", "result": "++ (“++” means between 3 uM and 10 uM)"}]}, {"smiles": "CC1CN(c2ncccc2C(=O)NS(=O)(=O)c2cccc(NCc3ccc(Cl)cc3Cl)n2)C(C)(C)C1", "note": "(centres unmarked) [Compound 1968, N—[[6-[(2,4-dichlorophenyl)methylamino]-2-pyridyl]sulfonyl]-2-(2,2,4-trimethylpyrrolidin-1-yl)pyridine-3-carboxamide]", "values": [{"measurement": "EC30", "result": "+++ (“+++” means <3 uM)"}]}, {"smiles": "CC(C)COc1cccc(-c2ccc(C(=O)NS(=O)(=O)c3cccc(N)n3)c(N3C[C@@H](C)CC3(C)C)n2)c1", "note": "[Compound 1969, N-[(6-amino-2-pyridyl)sulfonyl]-6-(3-isobutoxyphenyl)-2-[(4S)-2,2,4-trimethylpyrrolidin-1-yl]pyridine-3-carboxamide]", "values": [{"measurement": "EC30", "result": "+++ (“+++” means <3 uM)"}]}, {"smiles": "CCC(C)Oc1ccn(-c2ccc(C(=O)NS(=O)(=O)c3cccnc3N)c(N3C[C@@H](C)CC3(C)C)n2)n1", "note": "(stereo partly drawn) [Compound 1970, N-[(2-amino-3-pyridyl)sulfonyl]-6-(3-sec-butoxypyrazol-1-yl)-2-[(4S)-2,2,4-trimethylpyrrolidin-1-yl]pyridine-3-carboxamide]", "values": [{"measurement": "EC30", "result": "+++ (“+++” means <3 uM)"}]}, {"smiles": "CC1CN(c2ncccc2C(=O)NS(=O)(=O)c2cccc(NC3CCC(C(C)(C)C)CC3)n2)C(C)(C)C1", "note": "(centres unmarked) [Compound 1971, N—[[6-[(4-tert-butylcyclohexyl)amino]-2-pyridyl]sulfonyl]-2-(2,2,4-trimethylpyrrolidin-1-yl)pyridine-3-carboxamide]", "values": [{"measurement": "EC30", "result": "+++ (“+++” means <3 uM)"}]}, {"smiles": "COc1cccc(COc2cccc(S(=O)(=O)NC(=O)c3cccnc3N3CC(C)CC3(C)C)n2)c1", "note": "(centres unmarked) [Compound 1972, N—[[6-[(3-methoxyphenyl)methoxy]-2-pyridyl]sulfonyl]-2-(2,2,4-trimethylpyrrolidin-1-yl)pyridine-3-carboxamide]", "values": [{"measurement": "EC30", "result": "+++ (“+++” means <3 uM)"}]}, {"smiles": "Cc1cc(-c2ccc(C(=O)NS(=O)(=O)c3cccc(N)n3)c(N3C[C@@H](C)CC3(C)C)n2)cnc1OCCOC(C)C", "note": "[Compound 1973, N-[(6-amino-2-pyridyl)sulfonyl]-6-[6-(2-isopropoxyethoxy)-5-methyl-3-pyridyl]-2-[(4S)-2,2,4-trimethylpyrrolidin-1-yl]pyridine-3-carboxamide]", "values": [{"measurement": "EC30", "result": "+++ (“+++” means <3 uM)"}]}, {"smiles": "CC(C)(C)c1ccc(C(=O)NS(=O)(=O)c2cccc(N)n2)c(N2CCC(C3CC3)C2(C)C)n1", "note": "(centres unmarked) [Compound 1974]", "values": [{"measurement": "EC30", "result": "+++ (“+++” means <3 uM)"}]}, {"smiles": "C[C@@H]1CN(c2nc(-n3ccc(OCC(C)(C)C)n3)ccc2C(=O)NS(=O)(=O)c2cccnc2N)C(C)(C)C1", "note": "[Compound 1975, N-[(2-amino-3-pyridyl)sulfonyl]-6-[3-(2,2-dimethylpropoxy)pyrazol-1-yl]-2-[(4S)-2,2,4-trimethylpyrrolidin-1-yl]pyridine-3-carboxamide]", "values": [{"measurement": "EC30", "result": "+++ (“+++” means <3 uM)"}]}, {"smiles": "CC(=O)Nc1ncccc1S(=O)(=O)NC(=O)c1ccc(-c2ccc(OC(C)C)nc2)nc1N1C[C@@H](C)CC1(C)C", "note": "[Compound 1976, N-[(2-acetamido-3-pyridyl)sulfonyl]-6-(6-isopropoxy-3-pyridyl)-2-[(4S)-2,2,4-trimethylpyrrolidin-1-yl]pyridine-3-carboxamide]", "values": [{"measurement": "EC30", "result": "+++ (“+++” means <3 uM)"}]}, {"smiles": "CC1CN(c2ncccc2C(=O)NS(=O)(=O)c2cccc(Nc3ccc(OC(F)(F)F)cc3)n2)C(C)(C)C1", "note": "(centres unmarked) [Compound 1977, N—[[6-[4-(trifluoromethoxy)anilino]-2-pyridyl]sulfonyl]-2-(2,2,4-trimethylpyrrolidin-1-yl)pyridine-3-carboxamide]", "values": [{"measurement": "EC30", "result": "+++ (“+++” means <3 uM)"}]}]}
